Results from patent publication US20100249082A1, “MODULATORS OF HYPOXIA INDUCIBLE FACTOR-1 AND RELATED USES” (Bionaut Pharmaceuticals INC., priority 2007, published 2010).

What was measured:
[1] = cited from earlier work; for max. plasma concentration: in vivo
Na^+, K^+-ATPase [2] = target: T1, Na^+, K^+-ATPase (Homo sapiens, UniProt P05023); assay: cell-based; conditions: for Rank order: HEK-293, ranked on potency (IC50 value)
T1 construct: The HEK-293 cell line endogenously expressing Na^+, K^+-ATPase; endogenous in cells; host or cells: HEK-293
Protocol: Cells were plated at a density of 50,000 cells/well in 96-well microplates and incubated at 37° C., 5% CO2 until 80-90% confluency was attained

[3] = Sample solubility noted in the rubidium uptake assay; assay type: physicochemical; conditions: DMSO 1.0%
HIF-1α expression = assay: Immunoblotting for hypoxia-mediated HIF-1α induction in human tumor cells (Caki-1, Panc-1); assay type: cell-based; conditions: Caki-1 or Panc-1 cells under hypoxia
Na^+, K^+-ATPase [4] = target: Na^+, K^+-ATPase (Cricetulus griseus, UniProt A0A8C2N4Z0); assay: cell-based
Protocol: (§1) Compounds were screened using Ion Channel Research (ICR) technology and a non-radioactive Rubidium Uptake Assay
(§2) For all the test compounds and standard blockers, 100× solutions were used to prepare 1× test doses for Na^+, K^+-ATPase screen in CHO cell line. The final DMSO concentration in each well was 1%.
(§3) • 1. […] Rb^+ Uptake: Cells were washed with 200 μl of Rb^+ Uptake Buffer once and R^+ loaded by application of 198 μl R^+ Uptake Buffer. Compounds were added at 2 μl/well of a 100× stock solution in 100% DMSO in the uptake buffer followed by incubation for 30 minutes at room temperature (c. 22° C.). The total volume in each well was 200 μl (198 μl of R^+ Uptake Buffer and 2 μl of the 100× compound). The 100× compound solution gets diluted in R^+ Uptake Buffer to 1× and the DMSO to 1%. • 3. Wash: Residual R^+ and compound were removed by four successive washes with 200 μl of SPA-Wash Buffer. • 4. Cell Lysis: Intracellular samples were obtained by whole cell lysis with the application of 200 μl Lysis Solution. • 5. Analysis: The level of R^+ in the intracellular samples was measured by ICR8000 (Aurora Biomed Inc., Vancouver, Canada). using flame atomic absorption spectroscopy.

Na^+, K^+-ATPase [5] = assay: cell-based; conditions: for Inhibition (%) / Normalized Uptake (%): CHO-K1; for Sample Solubility: CHO-K1 screen test wells, 1% DMSO
Protocol: as §1, §2, §3

HIF-1α accumulation = assay: Western blot of HIF-1α induced by PHD inhibitor L-mimosone under normoxia in Hep3B cells; assay type: cell-based; conditions: 200 μM L-mimosone for 18 hours, Western blotting
Protocol: Abundance of HIF1α and β-actin was determined by Western blotting.

Row | Structure (SMILES) | max. plasma concentration [1] | IC50 (Na^+, K^+-ATPase [2]) | Rank order (Na^+, K^+-ATPase [2]) | Sample Solubility [3] | IC50 (Na^+, K^+-ATPase [4]) | Inhibition (%) (Na^+, K^+-ATPase [5]; dose 0.50 uM) | Normalized Uptake (%) (Na^+, K^+-ATPase [5]; dose 0.50 uM) | Inhibition (%) (Na^+, K^+-ATPase [5]; dose 1.0 uM) | Normalized Uptake (%) (Na^+, K^+-ATPase [5]; dose 1.0 uM) | Inhibition (%) (Na^+, K^+-ATPase [5]; dose 5.0 uM) | Normalized Uptake (%) (Na^+, K^+-ATPase [5]; dose 5.0 uM) | Inhibition (%) (Na^+, K^+-ATPase [5]; dose 10 uM) | Normalized Uptake (%) (Na^+, K^+-ATPase [5]; dose 10 uM) | Inhibition (%) (Na^+, K^+-ATPase [5]; dose 50 uM) | Normalized Uptake (%) (Na^+, K^+-ATPase [5]; dose 50 uM) | Inhibition (%) (Na^+, K^+-ATPase [5]; dose 100 uM) | Normalized Uptake (%) (Na^+, K^+-ATPase [5]; dose 100 uM) | Inhibition (%) (Na^+, K^+-ATPase [5]; dose 200 uM) | Inhibition (%) (Na^+, K^+-ATPase [5]; dose 500 uM) | Normalized Uptake (%) (Na^+, K^+-ATPase [5]; dose 500 uM) | also measured
1 | C[C@@H]1O[C@@H](O[C@@H]2C=C3CC[C@@H]4[C@H](CC[C@]5(C)[C@@H](c6ccc(=O)oc6)CC[C@]45O)[C@@]3(C)CC2)[C@H](O)[C@H](O)[C@H]1O [BNC4, proscillaridin, reference compound] | about 0.1 μg/mL | 0.24 µM | 1 | Good | 46.4 µM | 1.3% | 99.4% | 0.0% | 100.3% | 9.0% | 93.8% | 20.6% | 80.5% | 51.8% | 54.6% | 69.8% | 44.0% | 86.7% | 100.0% | 28.7% | plasma half-life in human ([1]; human, according to the literature): about 40 hours; Potency in inhibiting HIF-1α expression relative to BNC1 (HIF-1α expression): about 10 times; Normalized Uptake (%) (Na^+, K^+-ATPase [5]; dose 200 uM): 38.2%; Sample Solubility (Na^+, K^+-ATPase [5]): Good; Effect on HIF-1α accumulation induced by L-mimosone (HIF-1α accumulation): eliminated HIF-1α accumulation
2 | C[C@]12CCC(=NOCCN3CCC(Cc4ccccc4)CC3)C=C1CCC1C2CC[C@]2(C)[C@@H](c3ccc(=O)oc3)CC[C@]12O (stereo partly drawn) [BP249, 3-[2-(4-Benzylpiperidinoethoxy)imino]-scillarinone] |  | 5.53 µM | 4 | Good | 41.9 µM | 0.6% | 103.0% | 0.0% | 103.5% | 2.6% | 100.7% | 17.9% | 87.9% | 54.2% | 57.3% | 73.4% | 41.0% | 87.8% | 100.0% | 18.7% | Normalized Uptake (%) (Na^+, K^+-ATPase [5]; dose 200 uM): 29.0%; Sample Solubility (Na^+, K^+-ATPase [5]): Good
3 | C[C@@H]1O[C@@H](O[C@H]2C[C@@H](O)[C@]3(CO)[C@H]4[C@H](O)C[C@]5(C)[C@@H](C6=CC(=O)OC6)CC[C@]5(O)[C@@H]4CC[C@]3(O)C2)[C@H](O)[C@H](O)[C@H]1O [BNC1, ouabain] | about 0.03 μg/mL |  |  |  |  |  |  |  |  |  |  |  |  |  |  |  |  |  |  |  | 
4 | C[C@H]1O[C@@H](O[C@H]2[C@@H](O)C[C@H](O[C@H]3[C@@H](O)C[C@H](O[C@H]4CC[C@@]5(C)[C@H](CC[C@@H]6[C@@H]5CC[C@]5(C)[C@@H](C7=CC(=O)OC7)CC[C@]65O)C4)O[C@@H]3C)O[C@@H]2C)C[C@H](O)[C@@H]1O [Digitoxin, reference compound] |  | 1.1 µM | 2 |  | 44.9 µM | 0.0% | 100.0% | 6.2% | 93.8% | 8.6% | 91.4% | 19.8% | 80.2% | 51.9% | 48.1% | 76.8% | 23.2% |  | 89.7% | 10.3% | Inhibition (%) (Na^+, K^+-ATPase [5]; dose 1000 uM): 100.0%; Normalized Uptake (%) (Na^+, K^+-ATPase [5]; dose 1000 uM): 0.0%
